Values of other authors in patent publication US8333997B2, “Compositions for sustained release of nitric oxide, methods of preparing same and uses thereof” (priority 2006, dated 2012).

Legend:
S. aureus = conditions: dose-response study on S. aureus
[1] = test system: Methicillin sensitive and Methicillin resistant species; conditions: against Methicillin sensitive and Methicillin resistant species

## [N]=O [NO, nitric oxide]
S. aureus
  concentration at which NO exhibits potent antimicrobial properties: above 160 ppm

## C/C(=C\C(=O)OCCCCCCCCC(=O)O)C[C@@H]1OC[C@H](C[C@@H]2O[C@H]2[C@@H](C)[C@H](C)O)[C@@H](O)[C@H]1O [Mupirocin]
[1]
  efficacious concentration ranges: 25 to 256 mg/L
